Assays:
[1] = design: method as in PMID 12761811; details: cited from earlier work
[2] = tested on: Caco-2 cell model; design: method as in PMID 12761811; details: cited from earlier work
[3] = tested on: P-glycoprotein (Mdr1a/Mdr1b) in isolated perfused mouse lung; experiment: Isolated perfused mouse lung (IPML) airway-to-perfusate absorption, Mdr1a/1b (+/+) vs (−/−); details: for Mdr1a/1b (+/+) % Deposited Dose absorbed / Mdr1a/1b (-/-) % Deposited Dose absorbed: 30 min
Experimental: The atria and the lower half of the heart were cut to allow the free flow of perfusate. The lungs were removed and suspended vertically in a custom water-jacketed glass thorax (Radleys, Essex, UK) maintained at 37°C.
Following dosing of compound into the IPML airways serial samples (250 μL) were collected for bioanalysis from the 10 mL recirculating perfusate reservoir. Each sample collected from the reservoir was replaced with an equal volume of fresh warmed, oxygenated perfusate. Upon termination of the experiment the dose solutions, apparatus washings and perfusate samples were collected for mass balance calculations enabling determination of the actual total dose delivered to the lungs.
Radioactive compounds were directly analysed by liquid scintillation counting. Volumes of 50 μL perfusate samples were mixed with 3 mL of Scintisafe 3 Liquid Scintillation Fluid (Fisher, UK) and transferred to vials for scintillation counting using a TriCarb 2900TR (Packard Bioscience, USA).
After accounting for the mass of compound removed at each sample point, plots of the cumulative ‘%deposited dose absorbed’ versus ‘time’ were generated and subject to nonlinear regression analysis according to a first-order absorption one-compartment accumulating model (Eq. 1) to generate estimates for the extent (F) and rate (Ka) of absorption from the IPML airways to the recirculating perfusate.
The data was also subject to standard non-compartmental analysis, specifically Area Under Curve (AUC0–30 min) of ‘%deposited dose absorbed’ versus ‘time’ (units: %Dose.min) and reflecting for the exclusively accumulating perfusate ‘compartment’ the exposure arising from the IPML absorption process alone.

[4] = target: T1, mouse Bcrp (Mus musculus, UniProt Q7TMS5); experiment: Gentest ABC transporter membrane ATPase assay; assay type: biochemical; details: ATPase; 0 indicates no enzyme turnover
T1 construct: purchased Corning (Gentest), Germany
T1 sequence (Q7TMS5 1-657): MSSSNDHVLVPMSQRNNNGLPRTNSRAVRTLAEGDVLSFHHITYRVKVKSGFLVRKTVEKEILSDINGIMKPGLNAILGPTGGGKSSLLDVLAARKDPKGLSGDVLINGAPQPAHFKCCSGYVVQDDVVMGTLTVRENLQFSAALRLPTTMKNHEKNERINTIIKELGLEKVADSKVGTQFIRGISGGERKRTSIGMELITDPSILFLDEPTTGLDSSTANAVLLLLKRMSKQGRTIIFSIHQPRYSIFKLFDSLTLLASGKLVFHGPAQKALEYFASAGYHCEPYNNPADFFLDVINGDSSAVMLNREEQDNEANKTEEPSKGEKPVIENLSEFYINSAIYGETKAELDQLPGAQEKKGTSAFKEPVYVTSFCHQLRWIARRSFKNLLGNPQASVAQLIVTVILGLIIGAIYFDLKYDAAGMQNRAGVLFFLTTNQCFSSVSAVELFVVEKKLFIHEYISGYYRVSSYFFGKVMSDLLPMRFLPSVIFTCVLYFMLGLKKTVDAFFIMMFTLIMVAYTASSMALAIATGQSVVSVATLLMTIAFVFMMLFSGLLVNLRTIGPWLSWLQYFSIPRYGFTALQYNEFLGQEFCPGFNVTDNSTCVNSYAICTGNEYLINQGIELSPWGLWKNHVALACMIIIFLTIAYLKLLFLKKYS
Source text: (§1) The Gentest ATPase assay (Corning, Germany) was used to investigate the binding kinetics of the panel of P-gp substrates against membranes constituted to display human MDR1, mouse Mdr1a, mouse Mdr1b and mouse Bcrp. The assays measure the accumulation of inorganic phosphate (absorbance at 800 nm) produced in the breakdown of ATP to ADP. […] The assays were used in accordance with the manufacturer’s protocol to calculate (GraphPad Prism) the Michaelis-Menten parameters Km and VMAX. For the assay test compounds were serially diluted to produce an assay concentration range of 0–300 μM with the kinetics of ATP turnover examined over 30 min at 37°C.

[5] = Immobilised artificial membrane (IAM) chromatography; assay type: physicochemical; details: extrapolated to 100% water; mean of four experiments
Experimental: IAM chromatography provided an experimental measure of substrate membrane affinity and phospholipid interaction. The IAM column (Regis Technologies Inc., Hichrom, Reading, UK; IAM.PC.DD2 10 cm x 4.6 mm ID column) was run under isocratic eluting conditions with the retention of all compounds determined under three mobile phase conditions: 10%, 20% and 30% acetonitrile in water, and from which the theoretical retention time in 100% water was calculated by linear regression. LogK^IAM values were calculated according to Eq. 2:2 LogK^IAM=LogTr−T0/T0
where Tr and T0 are respectively the retention times of the substrate in 100% water and of the unretained compound, i.e. eluting within the solvent front of 75 s in all experiments.

[6] = Multi-lamellar liposome vesicle (MLV) partitioning; assay type: physicochemical; details: (C0−CS)/C0, 1 μg/mL, 4 h, 37°C, PBS pH 7.4
Experimental: MLVs were formed as previously described ([20]). Briefly, solutions of 8 mg phosphatidylcholine and 2 mg phosphatidylglycerol in 10 mL chloroform were completely dried to a lipid film (rotation under vacuum).
These preparations were then incubated at 37°C for 4 h under shaking conditions to allow equilibration of compound between the lipid and aqueous fractions. The MLVs were then pelleted and 100 μL of supernatant removed for analysis by radiometric or LC-MS/MS methods as described above. Partitioning into the MLVs was determined according to Eq. 3:3 MLVpartitioning=C0−CS/C0
where C0 is the initial compound concentration (1 μg/mL) and CS is the compound concentration present in the aqueous supernatant at the end of 4 h incubation.

[7] = target: human MDR1 (Homo sapiens, UniProt P08183); experiment: Gentest ABC transporter membrane ATPase assay; details: ATPase, 0–300 μM, 30 min, 37°C
[8] = target: mouse Mdr1a (Mus musculus, UniProt P21447); experiment: Gentest ABC transporter membrane ATPase assay; details: 0–300 μM, 30 min, 37°C
Source text: as §1

[9] = target: mouse Mdr1b (Mus musculus, UniProt P06795); experiment: Gentest ABC transporter membrane ATPase assay; details: 0–300 μM, 30 min, 37°C
Source text: as §1

[10] = tested on: P-gp (Mdr1a/1b) in mouse intestinal segments; experiment: Ussing chamber intestinal permeability, ileal segments Mdr1a/1b (+/+) vs (−/−); details: for Mdr1a/1b (−/−) Permeability coefficient: P-gp knockout intestinal segments; for Mdr1a/1b (−/−) Permeability coefficient / Mdr1a/1b (+/+) Permeability coefficient: mucosal to serosal, 50 μM, 180 min; for Mdr1a/1b (+/+) Permeability coefficient: wild-type intestinal segments
Experimental: The bathing fluid for both mucosal and serosal surfaces (3 mL volume in each chamber) comprised oxygenated Krebs-Henseleit buffer maintained at 37°C (heating block) under stirred conditions (gas flow manifold). […] Any intestinal segments presenting an initial TEER of lower than 80 Ω.cm^2 were discarded prior to the experiment, likewise any segments whose TEER decreased by more than 10% over the course of the experiment were excluded.
Thereafter permeability coefficients were determined according to Eq. 4:4 ρ=dM/dt/A^∗C0

[11] = tested on: P-gp (Mdr1a/1b); experiment: Pilot in-vivo intra-nasal instillation, lung clearance
Experimental: Separate mice were sacrificed (n=3) at each time-point post-instillation (5 min, 1 hr, 3 hr, 5 hr, 7 hr and 12 hr). Lung tissue was homogenised and subjected to solute extraction approaches priod to LC-MS/MS quantitation.

[12] = tested on: P-gp; details: IPRL; cited from earlier work
[13] = tested on: P-gp; design: method as in PMID 23670704; details: IPRL and IPML models; cited from earlier work
[14] = design: method as in PMID 4654354; details: cited from earlier work

mouse Mdr1b, sequence (P06795 whole entry): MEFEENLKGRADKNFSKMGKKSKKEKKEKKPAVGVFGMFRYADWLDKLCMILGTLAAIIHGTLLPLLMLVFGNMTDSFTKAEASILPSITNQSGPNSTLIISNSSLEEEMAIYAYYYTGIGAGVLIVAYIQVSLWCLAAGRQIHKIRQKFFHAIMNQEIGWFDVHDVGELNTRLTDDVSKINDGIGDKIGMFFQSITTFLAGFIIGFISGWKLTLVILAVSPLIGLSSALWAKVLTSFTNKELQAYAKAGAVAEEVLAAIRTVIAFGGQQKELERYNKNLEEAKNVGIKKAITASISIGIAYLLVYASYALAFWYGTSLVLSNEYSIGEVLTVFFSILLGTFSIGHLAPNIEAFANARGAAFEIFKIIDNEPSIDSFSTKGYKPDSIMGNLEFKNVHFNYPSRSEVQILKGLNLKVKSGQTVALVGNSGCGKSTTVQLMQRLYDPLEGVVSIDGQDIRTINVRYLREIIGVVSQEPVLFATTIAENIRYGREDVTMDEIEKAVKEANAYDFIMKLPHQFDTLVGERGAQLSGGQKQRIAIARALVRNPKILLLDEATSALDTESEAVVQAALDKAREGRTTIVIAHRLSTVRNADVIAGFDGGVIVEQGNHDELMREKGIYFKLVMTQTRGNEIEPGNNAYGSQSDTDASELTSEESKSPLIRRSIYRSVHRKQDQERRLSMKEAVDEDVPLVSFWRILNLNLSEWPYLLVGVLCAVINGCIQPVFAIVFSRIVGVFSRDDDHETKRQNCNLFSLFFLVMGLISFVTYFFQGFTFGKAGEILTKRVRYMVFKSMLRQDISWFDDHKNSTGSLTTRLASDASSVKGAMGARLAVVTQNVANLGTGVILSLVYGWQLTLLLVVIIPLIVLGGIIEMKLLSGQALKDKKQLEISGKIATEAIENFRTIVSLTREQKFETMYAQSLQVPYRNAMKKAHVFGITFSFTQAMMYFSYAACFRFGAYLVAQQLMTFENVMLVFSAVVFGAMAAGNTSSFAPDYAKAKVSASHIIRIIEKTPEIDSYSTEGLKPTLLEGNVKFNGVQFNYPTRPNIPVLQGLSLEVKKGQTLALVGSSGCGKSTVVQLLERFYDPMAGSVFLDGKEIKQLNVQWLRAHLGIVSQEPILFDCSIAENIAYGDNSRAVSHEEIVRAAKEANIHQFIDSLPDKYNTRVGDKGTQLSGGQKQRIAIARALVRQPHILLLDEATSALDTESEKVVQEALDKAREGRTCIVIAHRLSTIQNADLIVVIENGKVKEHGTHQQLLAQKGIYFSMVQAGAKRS
mouse Mdr1a, sequence (P21447 whole entry): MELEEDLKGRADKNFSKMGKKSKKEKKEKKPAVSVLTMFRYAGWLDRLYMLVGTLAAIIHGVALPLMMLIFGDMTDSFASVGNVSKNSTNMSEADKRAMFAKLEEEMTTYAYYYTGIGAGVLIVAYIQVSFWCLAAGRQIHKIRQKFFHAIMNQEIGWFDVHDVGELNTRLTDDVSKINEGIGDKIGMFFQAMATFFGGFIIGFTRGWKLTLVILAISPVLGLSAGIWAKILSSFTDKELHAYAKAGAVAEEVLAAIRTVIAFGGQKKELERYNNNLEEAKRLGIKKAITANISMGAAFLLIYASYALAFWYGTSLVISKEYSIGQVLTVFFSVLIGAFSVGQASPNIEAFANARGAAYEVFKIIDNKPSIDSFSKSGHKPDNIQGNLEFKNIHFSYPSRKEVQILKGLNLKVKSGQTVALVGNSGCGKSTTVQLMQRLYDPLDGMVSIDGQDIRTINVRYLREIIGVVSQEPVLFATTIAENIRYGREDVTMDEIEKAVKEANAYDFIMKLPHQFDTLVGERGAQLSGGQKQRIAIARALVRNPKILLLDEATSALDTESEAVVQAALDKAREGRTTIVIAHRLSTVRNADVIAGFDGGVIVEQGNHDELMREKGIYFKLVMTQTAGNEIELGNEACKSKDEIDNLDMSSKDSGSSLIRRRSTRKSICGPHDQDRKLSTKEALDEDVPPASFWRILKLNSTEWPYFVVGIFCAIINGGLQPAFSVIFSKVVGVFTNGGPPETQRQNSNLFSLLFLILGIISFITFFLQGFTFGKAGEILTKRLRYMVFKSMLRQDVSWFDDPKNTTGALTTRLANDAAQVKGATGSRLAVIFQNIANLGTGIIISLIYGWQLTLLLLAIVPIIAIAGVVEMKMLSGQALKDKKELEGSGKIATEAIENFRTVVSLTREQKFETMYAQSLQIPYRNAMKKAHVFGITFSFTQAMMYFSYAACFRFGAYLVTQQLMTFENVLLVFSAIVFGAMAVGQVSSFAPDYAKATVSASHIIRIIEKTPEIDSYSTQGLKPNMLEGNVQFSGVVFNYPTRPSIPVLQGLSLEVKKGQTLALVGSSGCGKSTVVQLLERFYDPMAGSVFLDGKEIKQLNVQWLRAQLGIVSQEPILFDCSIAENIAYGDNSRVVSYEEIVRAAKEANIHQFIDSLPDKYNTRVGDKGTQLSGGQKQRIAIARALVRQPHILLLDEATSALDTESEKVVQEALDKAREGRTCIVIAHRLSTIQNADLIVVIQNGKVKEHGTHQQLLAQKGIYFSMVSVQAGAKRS
human MDR1, sequence (P08183 whole entry): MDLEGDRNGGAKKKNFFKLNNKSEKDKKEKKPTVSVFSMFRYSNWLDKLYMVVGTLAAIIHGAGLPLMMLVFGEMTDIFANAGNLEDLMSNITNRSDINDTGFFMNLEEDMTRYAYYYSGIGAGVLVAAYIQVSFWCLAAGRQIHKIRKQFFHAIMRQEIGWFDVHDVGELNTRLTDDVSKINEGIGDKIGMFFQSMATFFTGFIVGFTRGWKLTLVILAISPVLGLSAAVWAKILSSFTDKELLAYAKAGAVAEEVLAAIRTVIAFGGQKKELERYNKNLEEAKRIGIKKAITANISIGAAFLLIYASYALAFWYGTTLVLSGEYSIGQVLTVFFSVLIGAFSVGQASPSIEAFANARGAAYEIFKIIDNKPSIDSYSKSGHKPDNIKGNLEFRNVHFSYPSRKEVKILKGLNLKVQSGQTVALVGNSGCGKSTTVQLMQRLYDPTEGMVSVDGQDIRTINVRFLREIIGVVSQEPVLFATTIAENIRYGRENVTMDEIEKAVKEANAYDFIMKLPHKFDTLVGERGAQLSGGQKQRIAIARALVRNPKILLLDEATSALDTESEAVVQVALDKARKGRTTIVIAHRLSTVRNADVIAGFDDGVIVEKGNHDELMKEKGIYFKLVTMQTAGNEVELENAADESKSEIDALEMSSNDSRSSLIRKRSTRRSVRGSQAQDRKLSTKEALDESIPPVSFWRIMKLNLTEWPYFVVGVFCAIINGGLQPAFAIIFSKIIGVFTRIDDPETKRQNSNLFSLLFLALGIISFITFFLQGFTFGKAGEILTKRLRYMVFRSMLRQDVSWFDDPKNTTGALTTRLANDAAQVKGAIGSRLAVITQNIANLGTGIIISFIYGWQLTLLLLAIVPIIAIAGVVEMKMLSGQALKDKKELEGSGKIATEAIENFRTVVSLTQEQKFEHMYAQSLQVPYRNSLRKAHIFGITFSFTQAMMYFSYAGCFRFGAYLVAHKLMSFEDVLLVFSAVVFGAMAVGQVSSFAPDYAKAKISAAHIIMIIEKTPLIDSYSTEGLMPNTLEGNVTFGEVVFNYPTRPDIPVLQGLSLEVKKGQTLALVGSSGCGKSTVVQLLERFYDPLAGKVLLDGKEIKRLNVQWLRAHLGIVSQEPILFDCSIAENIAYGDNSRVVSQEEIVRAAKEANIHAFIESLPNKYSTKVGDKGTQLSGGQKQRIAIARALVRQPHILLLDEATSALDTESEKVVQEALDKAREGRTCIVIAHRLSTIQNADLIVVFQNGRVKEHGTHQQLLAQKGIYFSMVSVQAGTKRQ

Compound | permeability across the lung [1] | Papp [2] [×10⁻⁶ cm/s] | Mdr1a/1b (+/+) ‘F’ estimate by model fit [95% CI) ([3]; male, mouse, 50 μM) | Mdr1a/1b (-/-) ‘F’ estimate by model fit [95% CI) ([3]; male, mouse, 50 μM) | Mdr1a/1b (+/+) % Deposited Dose absorbed ([3]; male, mouse, 50 μM) [%] | Mdr1a/1b (-/-) % Deposited Dose absorbed ([3]; male, mouse, 50 μM) [%] | Vmax [4] [µM/min] | LogK^IAM [5] | MLV Partitioning [6] | Vmax [7] [µM/min] | Vmax [8] [µM/min] | Vmax [9] [µM/min] | Mdr1a/1b (−/−) Permeability coefficient [10] | Mdr1a/1b (+/+) Permeability coefficient [10] | effect of P-gp inhibition (GF120918) upon pulmonary absorption [13] | also measured
CC(C)(C)NCC(O)c1cc(O)cc(O)c1 (centres unmarked) [terbutaline] | high permeability | < 1 | – | – | – | – | – | – | – | – | – | – | – | – | – | –
OCc1cc(C(O)CNCCCCCCOCCCCc2ccccc2)ccc1O (centres unmarked) [Salmeterol, salmeterol] | – | – | 42.9 [34.6 to 47.2] | 57.3 [48.3 to 66.3] | 36.7 | 48.7 | 0 | 1.60 | 0.80 | 24.4 | 27.5 | 38.2 | 18.33 ± 2.38 cm/s (x10^−6) | 15.8 ± 2.16 cm/s (x10^−6) | – | Group (impact of Mdr1a/1b knockout on IPML absorption) [3]: GROUP B; Ratio AUCs (-/-) : (+/+) ([3]; male, mouse, 50 μM): 1.37; Ratio Permeability (−/−): (+/+) ([10]; intestinal Papp KO:WT): 1.16
C[C@H]1O[C@@H](O[C@H]2[C@@H](O)C[C@H](O[C@H]3[C@@H](O)C[C@H](O[C@H]4CC[C@@]5(C)[C@H](CC[C@@H]6[C@@H]5C[C@@H](O)[C@]5(C)[C@@H](C7=CC(=O)OC7)CC[C@]65O)C4)O[C@@H]3C)O[C@@H]2C)C[C@H](O)[C@@H]1O [Digoxin, digoxin] | – | – | 44.0 [37.2 to 50.8] | 49.8 [38.4 to 61.3] | 40.1 | 41.8 | 0 | 0.92 | 0.30 | 19.7 | 26.7 | 44.1 | 20.94 ± 2.94 cm/s (x10^−6) | 6.04 ± 1.46 cm/s (x10^−6) | remained unaffected | lung levels 1 hr post-instillation, wild-type mice ([11]; intra-nasal 976 ng, Mdr1a/1b +/+): 1.57 % of the nominal instilled dos; lung levels 1 hr post-instillation, knockout mice ([11]; intra-nasal 976 ng, Mdr1a/1b -/-): 0.94 % of the nominal instilled dos; lung levels after 1 h post-instillation ([11]; intra-nasal, WT and KO mice): undetectable; effect of co-administered GF120918 upon pulmonary absorption [12]: no effect
cyanocobalamin | high permeability | < 1 | – | – | – | – | – | – | – | – | – | – | – | – | – | –
CN(C)C(=O)C(CCN1CCC(O)(c2ccc(Cl)cc2)CC1)(c1ccccc1)c1ccccc1 [loperamide] | – | – | – | – | – | – | – | – | – | – | – | – | – | – | affected | –
OC[C@@H](O)[C@@H](O)[C@H](O)[C@H](O)CO [mannitol] | – | – | – | – | – | – | – | – | – | – | – | – | – | – | – | Mdr1a/1b (+/+) % Deposited Dose absorbed ([3]; male, FVB/B6 Mdr1a/1b(+/+) wild-type, mouse, 50 μM): 44.3 ± 9.4%; Mdr1a/1b (-/-) % Deposited Dose absorbed ([3]; male, FVB/B6 Mdr1a/1b(−/−) knockout, mouse, 50 μM): 43.2 ± 10.2%; absorbed from the lung [14]: 50 % of administered dose; absorbed from the small intestine [14]: < 2%

Source: article PMC5736782, “The Differential Absorption of a Series of P-Glycoprotein Substrates in Isolated Perfused Lungs from Mdr1a/1b Genetic Knockout Mice can be Attributed to Distinct Physico-Chemical Properties: an Insight into Predicting Transporter-Mediated, Pulmonary Specific Disposition” (Pharmaceutical Research, 2017)
